Measured values: patent US11440913B2, “Aminoimidazopyridazines as kinase inhibitors” (BRISTOL-MYERS SQUIBB COMPANY, priority 2017, dated 2022)
Counter-ions that a name gives are not always drawn. Like-named read-outs stand apart in the source and are kept apart here.

Tests used:
[1] = tested on: MLKL phosphorylation in HT29-L23 human colorectal adenocarcinoma cells; experiment: MLKL Phosphorylation High-Content Assay; format: cell-based; conditions: 6 h, necroptosis induced with TNFα, SMAC mimetic and Z-VAD, read-out: pMLKL (IC50)
Description: MLKL Phosphorylation High-Content Assay
HT29-L23 human colorectal adenocarcinoma cells were maintained in RPMI 1640 medium containing 10% heat-inactivated FBS, 1% Pennicilin-Streptomycin and 10 mM HEPES. Cells were seeded at 2,000 cells/well in 384 w tissue culture-treated microplates (Greiner #781090-3B) and incubated at 37° C. (5% CO2/95% O2) for two days. On the day of assay, the cells were treated with test compounds at final concentrations of 6.25 to 0.106 μM for 30 min at 37° C. (5% CO2/95% O2). Necroptopsis was induced using a mixture of human TNFα (35 ng/mL) (Peprotech #300-01A), SMAC mimetic (from US 2015/0322111 A1) (700 nM) and Z-VAD (140 nM) (BD pharmingen #51-6936). Following six hours incubation at 37° C. (5% CO2/95% O2), the cells were fixed with 4% formaldedye (ACROS 11969-0010) for 15 min at room temperature and then permeabilized with phoshpate buffered saline (PBS) containing 0.2% Triton-X-100 for 10 min. MLKL phosporylation was detected using anti-MLKL (phospho S358) antibody (Abcam # ab187091) (1:1000 dilution in Blocking Buffer [PBS supplemented with 0.1% BSA]) with overnight incubation at 4° C. After washing three times in PBS, goat anti-rabbit Alexa-488 (1:1000 dilution) (Life Technologies, A11008) and Hoechst 33342 (Life Technologies, H3570) (1:2000 dilution) in Blocking Buffer were added for 1 h at room temperature. Following another three cycles of washes in PBS, the microplates were sealed, and cellular images were acquired in the Cellomics ArrayScan VTI high-content imager equipped with an X1 camera. Fluorescent images were taken using a 10× objective and the 386-23 BGRFRN_BGRFRN and 485-20 BGRFRN_BGRFRN filter sets, for nuclei and MLKL phosphorylation, respectively. The image sets were analyzed using the Compartmental Analysis Bioapplication software (Cellomics). The level of MLKL phosphorylation was quantified as MEAN_CircRingAvgIntenRatio. […] The IC50 value was defined as the concentration of compound that produces 50% of the maximal inhibition. The data were fitted using the 4-parameter logistic equation to calculate the IC50 and Ymax values.

[2] = molecular target: His-GST-TVMV-hRIPK1(1-324) (Homo sapiens (Human), UniProt Q13546); experiment: RIPK1 HTRF Binding Assay
Chain of His-GST-TVMV-hRIPK1(1-324) (Q13546 1-324): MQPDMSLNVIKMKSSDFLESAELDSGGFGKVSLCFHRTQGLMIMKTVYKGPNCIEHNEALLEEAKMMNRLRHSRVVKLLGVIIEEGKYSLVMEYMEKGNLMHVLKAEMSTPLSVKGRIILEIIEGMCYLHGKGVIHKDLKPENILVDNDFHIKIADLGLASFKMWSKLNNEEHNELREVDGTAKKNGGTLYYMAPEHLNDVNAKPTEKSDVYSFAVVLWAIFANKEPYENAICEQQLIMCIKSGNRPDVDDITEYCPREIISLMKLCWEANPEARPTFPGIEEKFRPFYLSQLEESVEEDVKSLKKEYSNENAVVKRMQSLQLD
Description: A solution was prepared containing 0.2 nM Anti GST-Tb (Cisbio, 61GSTTLB), 90.6 nM probe and 1 nM His-GST-TVMV-hRIPK1(1-324) in FRET Buffer (20 mM HEPES, 10 mM MgCl2, 0.015% Brij-35, 4 mM DTT, 0.05 mg/mL BSA). Using Formulatrix Tempest, the detection antibody/enzyme/probe solution ([…]) was dispensed into wells of a 1536 plate (Black Low Binding Polystyrene 1536 Plate (Corning, 3724)) containing 10 nL of compounds of interest at appropriate concentration in DMSO. The plate was incubated at rt for 1 h. FRET was measured using the EnVision plate reader (Excitation: 340 nm, Emission: 520 nm/[…]). Total signal (0% inhibition) was calculated from wells containing 10 nL DMSO only.
The coding region of human RIPK1(1-324) flanked by NdeI site at 5′ end and stop codon TGA and XhoI site at 3′ end was codon optimized and gene synthesized at GenScript USA Inc. (Piscataway, N.J.) and subcloned into a modified pFastBacl vector (Invitrogen, Carlsbad, Calif.) with N-terminal His-GST-TVMV tag, to generate His-GST-TVMV-hRIPK1(1-324)-pFB. The fidelity of the synthetic fragment was confirmed by sequencing.

[3] = HTRF binding, 1 h at rt, read-out: RIPK1 (IC50)

Compound: CC(=O)Nc1nc2ccc(-c3cnc(C)c(C(=O)NCc4cc(OC(F)(F)F)ccc4F)c3)nn2c1C [Example 253, 5-{2-acetamido-3-methylimidazo[1,2-b]pyridazin-6-yl}-N-{[2-fluoro-5-(trifluoromethoxy)phenyl]methyl}-2-methylpyridine-3-carboxamide]
- IC50 ([1]; Homo sapiens): 53 nM
- IC50 [2, 3]: 14 nM

Compound: [2H]C([2H])(NC(=O)c1cc(-c2ccc3nc(NC(C)=O)cn3n2)cnc1OC)c1cc(F)cc(F)c1OC1CCOCC1 [Example 153, 5-(2-acetamidoimidazo[1,2-b]pyridazin-6-yl)-N-((3,5-difluoro-2-((tetrahydro-2H-pyran-4-yl)oxy)phenyl)methyl-d2)-2-methoxynicotinamide]
- IC50 ([1]; Homo sapiens): 1 nM
- IC50 [2, 3]: 1 nM

Compound: CC(=O)Nc1cn2nc(-c3cnc(C)c(C(=O)NCc4cc(F)cc(F)c4O[C@H]4CCOC4)c3)ccc2n1 [Example 187, N-({3,5-difluoro-2-[(3S)-oxolan-3-yloxy]phenyl}methyl)-5-{2-acetamidoimidazo [1,2-b]pyridazin-6-yl}-2-methylpyridine-3-carboxamide]
- IC50 ([1]; Homo sapiens): 148 nM
- IC50 [2, 3]: 18 nM

Compound: COc1ccc(-c2ccc3nc(NC(C)=O)cn3n2)c(F)c1C(=O)N[C@@H](C)c1cc(OC(F)(F)F)ccc1F [Example 375, 3-{2-acetamidoimidazo [1,2-b]pyridazin-6-yl}-2-fluoro-N-[(1S)-1[2-fluoro-5-(trifluoromethoxy)phenyl]ethyl]-6-methoxybenzamide]
- IC50 ([1]; Homo sapiens): 3 nM
- IC50 [2, 3]: 12 nM

Compound: 5-{2- acetamidoimidazo [1,2-b]pyridazin- 6-yl}-N-{[2- fluoro-5- (trifluoromethoxy) phenyl] (Â^2Hâ,,)methyl}-2- methylbenzamide [Example 426]
- IC50 [1]: 7 nM
- IC50 [2, 3]: 1 nM

Compound: [2H]C([2H])([2H])Oc1nc(C)c(-c2ccc3nc(NC(C)=O)cn3n2)cc1C(=O)NC(C)c1ccccc1OC(F)(F)F (single isomer, unassigned) [Example 13-1, 5-{2-acetamidoimidazo[1,2-b]pyridazin-6-yl}-2-(D3)methoxy-6-methyl-N-{1-[2-(trifluoromethoxy)phenyl]ethyl}pyridine-3-carboxamide]
- IC50 [1]: > 6250 nM
- IC50 [2, 3]: 986 nM

Compound: [2H]C([2H])([2H])Oc1ncc(-c2ccc3nc(NC(C)=O)cn3n2)cc1C(=O)NC(C)c1cc(C(F)(F)F)ccc1F (stereo not shown) [Example 51, 5-{2-acetamidoimidazo[1,2-b]pyridazin-6-yl}-N-{1-[2-fluoro-5-(trifluoromethyl)phenyl]ethyl}-2-(D3)methoxypyridine-3-carboxamide]
- IC50 ([1]; Homo sapiens): 200 nM
- IC50 [2, 3]: 63 nM

Compound: CC(=O)Nc1cn2nc(-c3cc(C(=O)NCc4ccccc4OC(F)(F)F)c(C)nc3C)ccc2n1 [Example 89, 5-{2-acetamidoimidazo[1,2-b]pyridazin-6-yl}-2,6-dimethyl-N-{[2-(trifluoro-methoxy)phenyl]methyl}pyridine-3-carboxamide]
- IC50 ([1]; Homo sapiens): 88 nM
- IC50 [2, 3]: 38 nM

Compound: N-{[3,5-difluoro-2-(oxan-4- yloxy)phenyl](deutero)methyl}- 5-{2-acetamidoimidazo[1,2-b] pyridazin-6-yl}- 2-methylpyridine- 3-carboxamide [Example 192]
- IC50 [1]: 5 nM
- IC50 [2, 3]: 3 nM

Compound: CC(=O)Nc1cn2nc(-c3cnc(C)c(C(=O)NCc4cc(F)ccc4OCC4CCCC4)c3)ccc2n1 [Example 218, N-{[2-(cyclopentylmethoxy)-5-fluorophenyl]methyl}-5-{2-acetamidoimidazo[1,2-b]pyridazin-6-yl}-2-methylpyridine-3-carboxamide]
- IC50 ([1]; Homo sapiens): 15 nM
- IC50 [2, 3]: 6 nM

Compound: CC(=O)Nc1cn2nc(-c3cnc(C)c(C(=O)NCc4cc(F)ccc4OC4CCCC4)c3)ccc2n1 [Example 222, N-{[2-(cyclopentyloxy)-5-fluorophenyl]methyl}-5-{2-acetamidoimidazo[1,2-b]pyridazin-6-yl}-2-methylpyridine-3-carboxamide]
- IC50 ([1]; Homo sapiens): 2 nM
- IC50 [2, 3]: 3 nM

Compound: COc1ncc(-c2ccc3nc(NC(=O)CO)cn3n2)cc1C(=O)NCc1cc(OC(F)(F)F)ccc1F [Example 35, N-{[2-fluoro-5-(trifluoromethoxy)phenyl]methyl}-5-[2-(2-hydroxyacetamido)imidazo[1,2-b]pyridazin-6-yl]-2-methoxypyridine-3-carboxamide]
- IC50 ([1]; Homo sapiens): 130 nM
- IC50 [2, 3]: 25 nM

Compound: COc1nc(C)c(-c2ccc3nc(NC(C)=O)cn3n2)cc1C(=O)NCc1cc(F)cc(F)c1OCC1CCC1 [Example 294, N-{[2-(cyclobutylmethoxy)-3,5-difluorophenyl]methyl}-5-{2-acetamidoimidazo[1,2-b]pyridazin-6-yl}-2-methoxy-6-methylpyridine-3-carboxamide]
- IC50 ([1]; Homo sapiens): 3 nM
- IC50 [2, 3]: 10 nM

Compound: COc1nc(C)c(-c2ccc3nc(NC(C)=O)cn3n2)cc1C(=O)NC(C)c1cccc(OC(F)(F)F)c1 (stereo not shown) [Example 292, 5-{2-acetamidoimidazo[1,2-b]pyridazin-6-yl}-2-methoxy-6-methyl-N-{1-[3-(trifluoromethoxy)phenyl]ethyl}pyridine-3-carboxamide]
- IC50 [1]: 37 nM
- IC50 [2, 3]: 24 nM

Compound: CC(=O)Nc1cn2nc(-c3ccc(C)c(C(=O)NC[C@H]4C[C@@H]4c4ccc(F)cc4)c3)ccc2n1 [Example 401, 5-{2-acetamidoimidazo [1,2-b]pyridazin-6-yl}-N-{[(1S, 2S)-2-(4-fluorophenyl)cyclopropyl]methyl}-2-methylbenzamide]
- IC50 ([1]; Homo sapiens): 77 nM
- IC50 [2, 3]: 105 nM

Compound: CC(=O)Nc1cn2nc(-c3cnc(C)c(C(=O)NCc4cc(OCC5CC5)ccc4F)c3)ccc2n1 [Example 215, N-{[5-(cyclopropylmethoxy)-2-fluorophenyl]methyl}-5-{2-acetamidoimidazo[1,2-b]pyridazin-6-yl}-2-methylpyridine-3-carboxamide]
- IC50 ([1]; Homo sapiens): 22 nM
- IC50 [2, 3]: 8 nM

Compound: CC(=O)Nc1cn2nc(-c3cncc(NS(=O)(=O)c4ccc(F)cc4)c3)ccc2n1 [Example 11 in US2009/0163489, reference compound]
- IC50 ([2]; comparison compound of US2009/0163489, read-out: IC50 in the RIPK1 assay): 11000 nM

Compound: CC(=O)Nc1cn2nc(-c3cc(C(=O)NCc4cc(OC(F)(F)F)ccc4F)c(Cl)cc3C)ccc2n1 [Example 393, 2-chloro-5-{2-acetamidoimidazo [1,2-b]pyridazin-6-yl}-N-{[2-fluoro-5-(trifluoromethoxy)phenyl]methyl}-4-methylbenzamide]
- IC50 ([1]; Homo sapiens): 8 nM

Compound: CC(=O)Nc1cn2nc(-c3cc(C(=O)NCC[C@@H](O)c4ccc(Cl)cc4)c(C)cc3F)ccc2n1 [Example 415, N-[(3R)-3-(4-chlorophenyl)-3-hydroxypropyl]-5-{2-acetamidoimidazo[1,2-b]pyridazin-6-yl}-4-fluoro-2-methylbenzamide]
- IC50 ([1]; Homo sapiens): 4 nM

Compound: COc1ncc(-c2ccc3nc(NC(C)=O)cn3n2)cc1C(=O)NCc1ncccc1OCC(F)(F)F [Example 101, 5-{2-acetamidoimidazo[1,2-b]pyridazin-6-yl}-2-methoxy-N-{[3-(2,2,2-trifluoroethoxy)pyridin-2-yl]methyl}pyridine-3-carboxamide, 2 TFA]
- IC50 [1]: 248 nM

Compound: Cc1ncc(-c2ccc3nc(NC(=O)CN4CCOCC4)cn3n2)cc1C(=O)NCC[C@@H](O)c1ccc(Cl)cc1 [Example 345, N-[(3R)-3-(4-chlorophenyl)-3-hydroxypropyl]-2-methyl-5-{2-[2-(morpholin-4-yl)acetamido]imidazo[1,2-b]pyridazin-6-yl}pyridine-3-carboxamide]
- IC50 ([1]; Homo sapiens): 44 nM
